Literature values as cited in patent publication US7399616B2, “Enzymatic synthesis of Nα-acyl-L-arginine esters” (Laboratorios Miret, S.A., priority 2002, dated 2008).

Assays:
microorganisms = settings: acts over external and cytoplasmatic membrane and into cytoplasmatic medium; depends on kind of microorganism and exposure time
[1] = rats; metabolised into naturally-occurring amino acids and lauric acid, excreted as carbon dioxide and urea
[2] = animals and humans

Which results are given for `CCCCCCCCCCCC(=O)N[C@@H](CCCN=C(N)N)C(=O)OCC.Cl` [LAE, ethyl ester of the laurylamide of the L-arginine monohydrochloride]?
action on microorganisms (proliferation) (microorganisms): preventing their proliferation; absorption and metabolism [1]: fast absorption and metabolism; toxicity [2]: completely harmless
